Columns and labels:
[1] = tested on: RCC4/VHL cell clones overexpressing HIF-2α; assay: Sensitivity of RCC4/VHL clones overexpressing HIF; type: cell-based, human; conditions: two HIF-overexpressing RCC4/VHL clones, FIG. 2G
Method: As the hypoxia-inducible factor family of transcription factors are the best-characterized VHL targets, we next examined whether toxicity was HIF-dependent. A non-degradable, constitutively active HIF was overexpressed in RCC4/VHL cells. Two individual HIF-overexpressing clones were tested for their sensitivity to compound 47. […] Furthermore, the sensitivity of RCCs that lack functional VHL to compound 47 is directly linked to the aberrant upregulation of HIF.

LC3 = assay: Autophagy markers (vacuoles, LC3 processing); type: cell-based, human; conditions: RCC4 and RCC4/VHL, 1.25, 2.5 and 5 μM
Method: (§1) (A) Clonogenic survival of RCC4 and RCC4/VHL treated with […] (5 μM)(*p<0.05). All error bars represent the standard error of the mean. […] RCC4 and RCC4/VHL cells were treated with increasing concentrations of compound 47 (1.25, 2.5 and 5 μM), a negative control (DMSO) and a positive control (4-(pyridin-4-yl)-N-(m-tolyl)thiazol-2-amine). Cells were lysed and probed for LC3, a marker of autophagy, or α-tubulin (loading control). […] RCC4 and RCC4/VHL cells were treated with vehicle, increasing concentrations of compound 47, and camptothecin. Cells were stained with DAPI and nuclear condensation was examined by fluorescence microscopy. (D) RCC4 cells were treated with compound 47 (5 μM) for the indicated time and stained with Annexin V and propidium iodide and subjected to FACS analysis. […] RCC4 and RCC4/VHL cells were subjected to increasing concentrations of compound 47 (1.25, 2.5, and 5 μM), a negative control (DMSO), and a positive control (doxorubicin). Cells were lysed and subjected to Western blot with the indicated antibodies.
(§2) However, RCC cells without VHL undergo a necrotic cell death in response to compound 47 as measured by the ability of the cells to exclude trypan blue, an indicator of cell membrane integrity.

RCC4 and RCC4/VHL cells [2] = assay: Apoptosis (DAPI nuclear condensation, Annexin V / propidium iodide FACS); type: cell-based, human
Method: as §1, §2

[3] = tested on: RCC4 cells transfected with siRNA to HIF-1β; assay: 3H-2-deoxyglucose uptake, RCC4 with siRNA to HIF-1β; type: cell-based, human; conditions: 5 μM, FIG. 3E
Method: (§3) All cells were grown in DMEM+10% FCS. ACHN and ACHN shVHL were a kind gift from George V. Thomas (UCLA). HIF overexpressing clones were described previously. Transfection of RNA oligos were performed with DnarmaFECT Reagent 1 (Dharmcon), according to manufacturer's directions. ON-TARGETplus SMART pools against HIF-1β/ARNT were purchased from Dharmacon. Glut1 was detected with anti-GLUT1 antibody from NeoMarkers/LabVision/Fisher. Pyruvate/lactate levels and hexokinase activity were both measured by fluorometric assay (BioVision and Sigma-Aldrich, respectively). ATP levels were measured by bioluminescence assay (ATP Determination Kit from Molecular Probes/Invitrogen). In vitro kinase activities were performed by Millipore KinaseProfiler. Affi-Gel 10 (BioRad) activated affinity media was coupled to analogs to generate immobilized affinity linkers.
One hundred thousand cells were plated per well in a six-well plate. The next day, cells were treated with the indicated concentration of drug and incubated for the indicated time. […] Glucose uptake was quantified with a scintillation counter.
To further investigate the relationship between HIF and compound 47 toxicity, we silenced HIF-1β in RCC4 cells and assessed its affect on glucose uptake. […]

RCC4 and RCC4/VHL cells [4] = assay: Oxygen consumption (Oxytherm electrode); type: cell-based, human; conditions: 5 μM, FIG. 3F
Method: Following treatment with vehicle or drug, cells were trypsinized, suspended at 5 million cells per ml in DMEM+10% FCS, and oxygen consumption was measured in 0.5 ml volume using an Oxytherm electrode unit (Hansatech).

Abl = target: T1, Abl (Homo sapiens, UniProt P00519); assay: In vitro kinase activity (Millipore KinaseProfiler): Abl; type: biochemical; conditions: no head or unit printed
T1 construct: purchased Millipore (KinaseProfiler service)
T1 sequence (P00519 whole entry, species assumed): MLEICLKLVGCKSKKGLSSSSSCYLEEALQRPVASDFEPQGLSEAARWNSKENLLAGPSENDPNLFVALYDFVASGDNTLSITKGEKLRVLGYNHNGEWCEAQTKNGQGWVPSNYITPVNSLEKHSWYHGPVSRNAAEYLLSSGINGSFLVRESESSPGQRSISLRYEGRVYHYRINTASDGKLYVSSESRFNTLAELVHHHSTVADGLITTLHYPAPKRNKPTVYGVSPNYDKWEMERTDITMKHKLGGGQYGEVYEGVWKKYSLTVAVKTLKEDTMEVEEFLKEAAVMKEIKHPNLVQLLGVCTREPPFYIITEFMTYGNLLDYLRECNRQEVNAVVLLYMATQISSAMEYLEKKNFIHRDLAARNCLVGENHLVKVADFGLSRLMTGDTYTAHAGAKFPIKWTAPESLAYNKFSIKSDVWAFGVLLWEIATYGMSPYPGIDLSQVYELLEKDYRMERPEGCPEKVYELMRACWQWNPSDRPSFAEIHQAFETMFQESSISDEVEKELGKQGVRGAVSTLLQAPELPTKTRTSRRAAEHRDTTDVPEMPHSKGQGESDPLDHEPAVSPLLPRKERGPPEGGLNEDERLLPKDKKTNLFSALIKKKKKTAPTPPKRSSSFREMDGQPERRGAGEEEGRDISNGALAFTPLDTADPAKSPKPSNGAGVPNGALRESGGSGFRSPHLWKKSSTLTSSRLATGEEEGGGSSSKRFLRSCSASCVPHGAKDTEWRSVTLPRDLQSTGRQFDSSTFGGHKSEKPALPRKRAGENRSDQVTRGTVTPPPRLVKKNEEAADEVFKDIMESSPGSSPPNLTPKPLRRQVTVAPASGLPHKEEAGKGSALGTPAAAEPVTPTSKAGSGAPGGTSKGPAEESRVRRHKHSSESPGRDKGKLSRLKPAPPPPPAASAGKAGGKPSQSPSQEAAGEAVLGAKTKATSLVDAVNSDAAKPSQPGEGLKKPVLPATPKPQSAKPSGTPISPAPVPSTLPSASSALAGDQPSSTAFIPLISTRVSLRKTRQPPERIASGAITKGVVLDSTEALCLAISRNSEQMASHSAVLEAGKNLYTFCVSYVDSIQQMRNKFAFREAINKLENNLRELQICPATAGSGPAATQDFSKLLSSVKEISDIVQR
Method: as §3
(§4) We next wanted to investigate the differential glucose uptake between RCCs with and without VHL treated with compound 47 that subsequently lead to the selective death of VHL-deficient cells. We first examined the message levels of the two main glucose transporters, GLUT1 and GLUT2 by quantitative real-time PCR. GLUT1 is an inducible, high-affinity glucose transporter, while GLUT2 is the glucose transporter responsible for basal glucose uptake. […] Cells deficient in VHL had very low levels of GLUT2 that could barely be detected (FIG. 3J). […]

CK1γ1 = target: T2, CK1γ1 (Homo sapiens, UniProt Q9HCP0); assay: In vitro kinase activity (Millipore KinaseProfiler): CK1γ1; type: biochemical; conditions: no head or unit printed
T2 construct: purchased Millipore (KinaseProfiler service)
T2 sequence (Q9HCP0 whole entry): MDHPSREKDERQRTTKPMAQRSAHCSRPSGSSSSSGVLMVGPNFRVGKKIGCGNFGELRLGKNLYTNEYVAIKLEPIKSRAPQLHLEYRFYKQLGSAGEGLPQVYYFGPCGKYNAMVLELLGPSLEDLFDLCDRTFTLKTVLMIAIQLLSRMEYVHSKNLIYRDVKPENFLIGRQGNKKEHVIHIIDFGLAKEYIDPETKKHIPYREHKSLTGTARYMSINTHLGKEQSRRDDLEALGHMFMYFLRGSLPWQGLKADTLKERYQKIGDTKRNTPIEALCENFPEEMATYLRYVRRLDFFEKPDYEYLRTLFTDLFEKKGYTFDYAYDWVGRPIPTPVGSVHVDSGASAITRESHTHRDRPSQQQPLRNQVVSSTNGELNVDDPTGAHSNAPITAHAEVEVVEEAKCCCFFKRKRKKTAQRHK
Method: as §3, §4

IGF-1R = target: T3, IGF-1R (Homo sapiens, UniProt P08069); assay: In vitro kinase activity (Millipore KinaseProfiler): IGF-1R; type: biochemical; conditions: no head or unit printed
T3 construct: purchased Millipore (KinaseProfiler service)
T3 sequence (P08069 31-1367, species assumed): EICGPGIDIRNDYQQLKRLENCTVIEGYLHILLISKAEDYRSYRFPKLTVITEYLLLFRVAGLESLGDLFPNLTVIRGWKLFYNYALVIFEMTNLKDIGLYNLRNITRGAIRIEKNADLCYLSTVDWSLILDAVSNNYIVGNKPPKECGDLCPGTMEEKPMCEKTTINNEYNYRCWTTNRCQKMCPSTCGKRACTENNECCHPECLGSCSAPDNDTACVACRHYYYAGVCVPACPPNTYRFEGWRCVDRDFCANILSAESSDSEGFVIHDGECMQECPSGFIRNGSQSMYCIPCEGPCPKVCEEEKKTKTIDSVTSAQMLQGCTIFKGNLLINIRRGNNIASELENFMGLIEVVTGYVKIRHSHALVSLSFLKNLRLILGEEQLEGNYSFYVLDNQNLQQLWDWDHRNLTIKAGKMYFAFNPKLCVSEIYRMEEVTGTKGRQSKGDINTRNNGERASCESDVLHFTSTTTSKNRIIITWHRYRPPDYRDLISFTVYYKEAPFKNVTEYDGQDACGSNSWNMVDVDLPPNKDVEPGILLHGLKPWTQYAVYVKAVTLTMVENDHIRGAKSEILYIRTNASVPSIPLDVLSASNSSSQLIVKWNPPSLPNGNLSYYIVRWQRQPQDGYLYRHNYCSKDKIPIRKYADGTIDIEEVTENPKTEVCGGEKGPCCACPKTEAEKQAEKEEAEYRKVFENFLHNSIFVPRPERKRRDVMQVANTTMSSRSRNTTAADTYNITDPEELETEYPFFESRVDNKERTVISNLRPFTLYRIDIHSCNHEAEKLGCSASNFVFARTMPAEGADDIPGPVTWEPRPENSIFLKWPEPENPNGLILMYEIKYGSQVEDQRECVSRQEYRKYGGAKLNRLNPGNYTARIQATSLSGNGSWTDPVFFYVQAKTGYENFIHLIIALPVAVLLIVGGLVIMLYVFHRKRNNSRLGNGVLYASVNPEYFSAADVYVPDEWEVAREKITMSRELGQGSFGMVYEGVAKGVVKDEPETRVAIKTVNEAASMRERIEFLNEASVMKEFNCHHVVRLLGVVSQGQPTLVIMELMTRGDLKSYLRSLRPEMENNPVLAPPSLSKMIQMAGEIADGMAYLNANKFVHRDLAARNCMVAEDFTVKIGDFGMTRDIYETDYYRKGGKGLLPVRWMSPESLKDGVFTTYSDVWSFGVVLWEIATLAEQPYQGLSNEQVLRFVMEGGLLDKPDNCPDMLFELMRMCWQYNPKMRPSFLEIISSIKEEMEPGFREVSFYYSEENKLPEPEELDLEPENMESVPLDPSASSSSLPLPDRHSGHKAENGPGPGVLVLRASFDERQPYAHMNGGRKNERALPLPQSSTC
Method: as §3, §4

JNK1α1 = target: T4, JNK1α1 (Homo sapiens, UniProt P45983); assay: In vitro kinase activity (Millipore KinaseProfiler): JNK1α1; type: biochemical; conditions: no head or unit printed
T4 construct: purchased Millipore (KinaseProfiler service)
T4 sequence (P45983 1-384 isoform P45983-2, species assumed): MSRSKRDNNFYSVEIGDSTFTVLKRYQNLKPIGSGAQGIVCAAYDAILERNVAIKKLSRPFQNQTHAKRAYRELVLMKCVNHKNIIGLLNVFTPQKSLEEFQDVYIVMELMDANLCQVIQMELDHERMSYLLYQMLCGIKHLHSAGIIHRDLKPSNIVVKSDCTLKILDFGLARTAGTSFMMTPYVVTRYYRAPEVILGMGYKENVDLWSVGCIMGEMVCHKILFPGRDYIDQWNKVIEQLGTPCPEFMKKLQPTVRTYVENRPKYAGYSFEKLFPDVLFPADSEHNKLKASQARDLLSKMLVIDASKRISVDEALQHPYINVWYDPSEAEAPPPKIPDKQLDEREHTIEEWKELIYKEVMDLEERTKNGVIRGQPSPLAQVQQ
Method: as §3, §4

MAPKAP-K2 = target: T5, MAPKAP-K2 (Homo sapiens, UniProt P49137); assay: In vitro kinase activity (Millipore KinaseProfiler): MAPKAP-K2; type: biochemical; conditions: no head or unit printed
T5 construct: purchased Millipore (KinaseProfiler service)
T5 sequence (P49137 whole entry, species assumed): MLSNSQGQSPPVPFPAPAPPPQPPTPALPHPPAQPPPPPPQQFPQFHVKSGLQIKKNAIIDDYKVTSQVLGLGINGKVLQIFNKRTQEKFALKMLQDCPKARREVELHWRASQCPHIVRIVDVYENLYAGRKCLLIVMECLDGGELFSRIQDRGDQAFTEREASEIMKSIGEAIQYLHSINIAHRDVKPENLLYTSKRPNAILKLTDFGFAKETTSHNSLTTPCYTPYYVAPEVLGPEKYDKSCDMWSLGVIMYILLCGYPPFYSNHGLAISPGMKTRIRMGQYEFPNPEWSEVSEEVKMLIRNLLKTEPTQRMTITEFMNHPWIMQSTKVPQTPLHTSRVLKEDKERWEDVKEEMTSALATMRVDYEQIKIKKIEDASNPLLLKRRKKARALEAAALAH
Method: as §3, §4

Pim-2 = target: T6, Pim-2 (Homo sapiens, UniProt Q9P1W9); assay: In vitro kinase activity (Millipore KinaseProfiler): Pim-2; type: biochemical; conditions: no head or unit printed
T6 construct: purchased Millipore (KinaseProfiler service)
T6 sequence (Q9P1W9 whole entry, species assumed): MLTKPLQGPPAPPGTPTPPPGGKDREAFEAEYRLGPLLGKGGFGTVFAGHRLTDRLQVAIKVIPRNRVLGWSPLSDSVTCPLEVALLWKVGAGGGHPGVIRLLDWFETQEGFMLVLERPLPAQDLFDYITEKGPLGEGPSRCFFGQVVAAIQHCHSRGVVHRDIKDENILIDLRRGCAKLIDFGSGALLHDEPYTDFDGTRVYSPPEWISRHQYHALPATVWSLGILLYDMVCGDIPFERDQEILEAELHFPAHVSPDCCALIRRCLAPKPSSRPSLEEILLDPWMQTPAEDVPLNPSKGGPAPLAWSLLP
Method: as §3, §4

With `CC(C)(C)c1ccc(S(=O)(=O)NCc2ccc(C(=O)Nc3cccnc3)cc2)cc1` [Example 38, 4-((4-tert-Butylphenylsulfonamido)methyl)-N-(pyridin-3-yl)benzamide] the “effect of ectopic HIF expression in wild-type VHL cells on sensitivity” value [1] was “sensitized these cells”, the “induction of autophagy (vacuoles, LC3 processing)” value (LC3) was “did not induce any morphologic or biochemical features of autophagy” and the “nuclear condensation (apoptosis)” value (RCC4 and RCC4/VHL cells [2]; DAPI, RCC4 and RCC4/VHL, FIG. 7C) was “no nuclear condensation”. The “propidium iodide or annexin V staining (apoptosis)” value (RCC4 and RCC4/VHL cells [2]; RCC4, 5 μM, FACS, FIG. 7D) was “nor an increase in either propidium iodide or annexin V staining”, the “glucose uptake in RCC4 with HIF-1β silenced” value [3] was “insensitive” and the “oxygen consumption, treated vs untreated cells” value (RCC4 and RCC4/VHL cells [4]) was “no difference in oxygen consumption”. The Abl kinase activity (Abl) was 108, the CK1γ1 kinase activity (CK1γ1) was 85% and the IGF-1R kinase activity (IGF-1R) was 108. For the same compound, the JNK1α1 kinase activity (JNK1α1) was 101, the MAPKAP-K2 kinase activity (MAPKAP-K2) was 87 and the Pim-2 kinase activity (Pim-2) was 112.

Reference: patent US20120225862A1, “HETEROARYL BENZAMIDES, COMPOSITIONS AND METHODS OF USE” (AUCKLAND UNIVSERVICES LIMITED, priority 2009, published 2012)
